Assay results from patent publication US11324852B2, “Coated silk films, methods for the production thereof and uses thereof” (AMSILK GMBH, priority 2014, dated 2022).
Structures can show the parent of a compound that is named as a salt.

Experiments:
Assay type in all cases: physicochemical
C16 films = test: Remote loading of drugs and model protein lysozyme into C16 films; details: 30 min, room temperature
Experimental: Loading efficiency and loading were determinate for lysozyme dissolved in high purified water (HPW). For the remote loading of lysozyme, the loading solution was prepared dissolving 1% w/v lysozyme in high purified water. Three different films were weighted, following by incubation in a 6-well plate with 5 ml of the loading solution at room temperature, at 2 rpm. After 30 min, films were removed and the loading solution was diluted 1:20 and analysed photometrically at 280 nm recording its spectra using a spectrophotometer (Agilent Technologies 8453, Oberhaching, Germany). A calibration curve was prepared using the original lysozyme solution. The same method was performed using as incubation medium of 0.5% and 0.25% of lysozyme.
A) Low molecular weight drugs (tetracain hydrochloride, ethacridine monohydrate lactate, nipagin and phenol red) were dissolved at a concentration of 0.5 mg/ml in highly purified water (HPW), Tris 5 mM pH 7, and formate buffer 5 mM, pH 3, respectively. After dissolving the drugs, all solutions were filtered through a 0.45 μm cellulose acetate filter.
For the remote loading process, the previously cast C16 films were cut into pieces, weighed and placed into 24-well plates. At least four C16 film samples were incubated with 1 ml of each drug solutions for 30 min at gently agitation of 2 rpm at room temperature. After removing the C16 films, the quantities of the loaded drugs were calculated indirectly by measuring the remaining loading solutions photometrically. Finally, the loading and the loading-efficiency for each experimental condition were calculated (see Table 1).
For the remote loading of the model protein lysozyme, the loading solution was prepared by dissolving 1% w/v lysozyme in HPW. As before, three different C16 films were weighed. Afterwards, C16 films were incubated in a 6-well plate with 5 ml of the loading solution at gently agitation of 2 rpm at room temperature. After 30 min, C16 films were removed and the loading solution was analysed photometrically at 280 nm. Spectra were recorded using a spectrophotometer. At physiological pH, spider silk films are negatively charged.
B) For the remote loading of Lysozyme, the loading solution was prepared dissolving 1% w/v lysozyme in high purified water (HPW). Three different C16 films were weighted, followed by incubation in a 6-well plate with 5 ml of the loading solution at gently agitation of 2 rpm at room temperature. After 30 min, C16 films were removed and the loading solution was diluted 1:20 and analyzed photometrically at 280 nm. In particular, a spectra of this solution was subsequently recorded using a spectrophotometer (Agilent Technologies 8453, Oberhaching, Germany). A calibration curve was prepared using the original lysozyme solution. The same method was performed using an incubation medium with 0.5% and 0.25% of Lysozyme.

[1] = Cumulative release of paracetamol, FITC-dextran and FITC-BSA from directly loaded C16 films; details: for Release from C16 films (in words): 0.01 M PBS buffer pH 7.4, 37° C.
Experimental: Paracetamol: Before casting the C16 films, paracetamol was added and dissolved directly in 2.5% C16 protein solution. The resulting films contained each 2.5 mg of paracetamol. Three film samples containing paracetamol were incubated in 0.01 M PBS buffer pH 7.4 at 37° C. At predetermined time points, the buffer was removed and replaced with fresh medium. The release buffer was analyzed by NanoDrop 2000 (peqlab, Erlanger, Germany). […] Each film contained 1.3 mg of FITC-BSA or FD. Films containing the model drugs (n=3) were incubated in 0.01 M PBS buffer pH 7.4 at 37° C. At predetermined time points the buffer was removed and replaced with fresh medium. The release buffer was analyzed using the fluorescence spectrophotometer Cary Eclipse Varian (Agilent technology, Böblingen, Germany) applying an excitation wavelength of 490 nm and an emission of 520 nm. The drug which was not released was quantified by dissolving the film matrix in a 6 M GdmSCN solution. This solution was subsequently analyzed using a fluorescence spectrophotometer.
A) Spray-dried C16 proteins were dissolved in 6 M guanidinium thiocyanate and subsequently dialyzed against 5 mM Tris/HCl buffer, pH 8 at 4° C. The pH was measured using a pH meter. The protein solution was centrifuged at 10000 rpm for 15 min and filtered through a 0.45 μm cellulose acetate filter. The protein concentration was determined photometrically. The protein solution was finally diluted with Tris buffer to 2.5% w/v. Before casting the films, paracetamol was added and dissolved directly in the protein solution. Films (2.5×3 cm) were cast on the plastic foil A5 22/5B from mtv-messtechnik (Koeln, Germany) and dried in a laminar flow cabinet at room temperature overnight at 45% relative humidity. The resulting films contained 2.5 mg of drug. Three film samples containing paracetamol were incubated in 0.01 M PBS buffer, pH 7.4 at 37° C. At predetermined time points, the buffer was removed and replaced with fresh medium. The release buffer was analysed using a UV-Vis spectrophotometer.
Films were cast as described above. Every film contained 25 mg of C16 and 1.3 mg of FITC-BSA or FD, respectively. Films containing the substances were incubated in 0.01 M PBS buffer, pH 7.4 at 37° C. At predetermined time points, the buffer was removed and replaced with fresh medium. The release buffer was analysed using a fluorescence spectrophotometer applying an excitation wavelength of 490 nm and an emission of 520 nm. The substance which was not released was quantified by dissolving the film matrix in a 6M GdmSCN solution. This solution was subsequently analysed using a fluorescence spectrophotometer. The sum of the non-released substance and the released amount of substance was calculated as 100%. […] After direct loading with FITC-BSA, C16 films released almost 65% of the model protein within one week. […] The cumulative release of paracetamol, FITC-dextran 21 kDa (FD) and FITC-BSA from C16 films casted from an aqueous solution is shown in FIG. 6.

[2] = Isoelectric point (pI) of spider silk polypeptides
[3] = HPW (highly purified water), LMW drugs 0.5 mg/ml, lysozyme 1% w/v
[4] = pH 3 (formate buffer 5 mM), drug 0.5 mg/ml
[5] = pH 7 (Tris 5 mM), drug 0.5 mg/ml

Loading (L) (C16 films; [3])	Loading efficiency (LE) (C16 films; [3])	Loading (L) (C16 films; [4])	Loading efficiency (LE) (C16 films; [4])	Loading (L) (C16 films; [5])	Loading efficiency (LE) (C16 films; [5])	Molecule	further results
0.8 ± 0.3%	9.6 ± 4.3%	0.5 ± 0.2%	5.3 ± 2.3%	0.0 ± 0.0%	0.0 ± 0.0%	COC(=O)c1ccc(O)cc1 [Nipagin, nipagin]	
3.8 ± 1.9%	35.1 ± 8.3%	0.0 ± 0.0%	0.0 ± 0.0%	2.5 ± 07%	24.3 ± 7.7%	CCCCNc1ccc(C(=O)OCCN(C)C)cc1 [Tetracaine HCl, tetracain hydrochloride]	

Further lines, the molecule ahead of its results:

Molecule	Loading (L) (C16 films; [3])	Loading efficiency (LE) (C16 films; [3])	Loading (L) (C16 films; [4])	Loading efficiency (LE) (C16 films; [4])	Loading (L) (C16 films; [5])	Loading efficiency (LE) (C16 films; [5])	further results
CC(O)C(=O)O.CCOc1ccc2nc3cc(N)ccc3c(N)c2c1.O [Ethacridine lact., ethacridine monohydrate lactate]	3.3 ± 0.3%	54.2 ± 3.2%	2.4 ± 0.5%	16.5 ± 5.4%	3.5 ± 1.0%	45.8 ± 2.7%	
CC(=O)Nc1ccc(O)cc1 [paracetamol]							Release from C16 films (in words) ([1]; direct loading): completely release
FITC-BSA: FITC-BSA (MW 66.5 kDa), model drug / model protein							Release after the burst (in words) ([1]; after day 1, 0.01 M PBS pH 7.4, 37° C.): constant amount per day; Release from C16 films (in words) ([1]; direct loading): slower; Burst release from C16 films ([1]; on day 1, direct loading, 0.01 M PBS pH 7.4, 37° C.): approx. 30%; Cumulative release from C16 films ([1]; within one week, direct loading, 0.01 M PBS pH 7.4, 37° C.): ~65%
Lysozyme: model protein, positively charged at physiological pH	39.8 ± 1.8%	22.8 ± 0.7%					
C16: silk polypeptide which comprises 16 repeats of the sequence of module C (SEQ ID NO: 21) (protein) GSSAAAAAAAASGPGGYGPENQGPSGPGGYGPGGPGSSAAAAAAAASGPGGYGPENQGPSGPGGYGPGGPGSSAAAAAAAASGPGGYGPENQGPSGPGGYGPGGPGSSAAAAAAAASGPGGYGPENQGPSGPGGYGPGGPGSSAAAAAAAASGPGGYGPENQGPSGPGGYGPGGPGSSAAAAAAAASGPGGYGPENQGPSGPGGYGPGGPGSSAAAAAAAASGPGGYGPENQGPSGPGGYGPGGPGSSAAAAAAAASGPGGYGPENQGPSGPGGYGPGGPGSSAAAAAAAASGPGGYGPENQGPSGPGGYGPGGPGSSAAAAAAAASGPGGYGPENQGPSGPGGYGPGGPGSSAAAAAAAASGPGGYGPENQGPSGPGGYGPGGPGSSAAAAAAAASGPGGYGPENQGPSGPGGYGPGGPGSSAAAAAAAASGPGGYGPENQGPSGPGGYGPGGPGSSAAAAAAAASGPGGYGPENQGPSGPGGYGPGGPGSSAAAAAAAASGPGGYGPENQGPSGPGGYGPGGPGSSAAAAAAAASGPGGYGPENQGPSGPGGYGPGGP							pI [2]: 3.48
